“And” between values parts separate entries of the source, which are not always exact repeats. Identical values can stand only once.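 Growth conditions: 96-well plates. Treatment: test compound, 48 hours, 5 concentrations. Analysis: linear interpolation between bracketing concentrations; unreached endpoints set to highest concentration. GI50 is the concentration that inhibits growth by half. At the TGI there is no net growth.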

Among the test systems are UACC-62 melanoma; T-47D breast; MALME-3M melanoma; CCRF-CEM leukemia; RPMI-8226 leukemia; LOX IMVI melanoma; NCI-H460 lung; KM12 colon; SF-268 CNS; NCI-H226 lung.
Experiment in all cases: NCI tumour cell line growth inhibition, 48 h

In the case of `O=C(/C=C\c1cc(Br)ccc1O)/C=C/c1cc(Br)ccc1O`, the GI50 with UACC-62 melanoma is 0.429 µM; in the experiment with T-47D breast, 0.635 µM; with MALME-3M melanoma, 1.5 µM; in the experiment on CCRF-CEM leukemia, 0.282 µM; in the experiment on RPMI-8226 leukemia it was 0.3 µM; with LOX IMVI melanoma, 0.208 µM. Moreover, the GI50 in the experiment with NCI-H460 lung is 1.57 µM; in the experiment with KM12 colon, 1.25 µM; in the experiment on SF-268 CNS, 1.33 µM; with NCI-H226 lung it was 2.63 µM. Further, the TGI was found to be 1.8 µM in the experiment on UACC-62 melanoma; 4.94 µM in the experiment on T-47D breast; 3.08 µM in the experiment with MALME-3M melanoma; 10.5 µM with CCRF-CEM leukemia; 1.4 µM with RPMI-8226 leukemia; 0.463 µM with LOX IMVI melanoma. Also, the TGI with NCI-H460 lung was 3.91 µM; in the experiment on KM12 colon it was 2.72 µM; with SF-268 CNS it was 3.1 µM; in the experiment on NCI-H226 lung it was 8.69 µM.
Turning to `[N-]=[N+]=NCCCn1c2c(c3ccc([N+](=O)[O-])cc3c1=O)C(=O)c1cc(I)ccc1-2`, the GI50 in the experiment with UACC-62 melanoma is 3.33 µM; in the experiment with T-47D breast, 3.87 µM; in the experiment with MALME-3M melanoma, 12.5 µM; with CCRF-CEM leukemia it was 0.416 µM; in the experiment on RPMI-8226 leukemia, 2.17 µM; with LOX IMVI melanoma, 3.75 µM. The GI50 with NCI-H460 lung was 0.449 µM; in the experiment on KM12 colon, 18 µM; in the experiment with SF-268 CNS, 2.58 µM; in the experiment on NCI-H226 lung, 14.3 µM. Further, the TGI with UACC-62 melanoma is 18.3 µM; with T-47D breast, over 100 µM; in the experiment on MALME-3M melanoma, 77 µM; with CCRF-CEM leukemia, over 100 µM; in the experiment on RPMI-8226 leukemia, 59.6 µM; in the experiment on LOX IMVI melanoma it was 33 µM. The TGI with NCI-H460 lung is 11.6 µM; in the experiment with KM12 colon, over 100 µM; in the experiment on SF-268 CNS it was over 100 µM; with NCI-H226 lung, over 100 µM.
In the case of `O=C(CN1CCN(CCN2C(=O)c3cccc4cccc(c34)C2=O)CC1)Nc1ccc2ncsc2c1`, the GI50 is 6.61 µM in the experiment with UACC-62 melanoma; 5.12 µM with T-47D breast; 7.47 µM with MALME-3M melanoma; 5.4 µM in the experiment with CCRF-CEM leukemia; 9.39 µM in the experiment with RPMI-8226 leukemia; 4.93 µM in the experiment on LOX IMVI melanoma. The GI50 in the experiment with NCI-H460 lung was 3.58 µM; with KM12 colon, 6.16 µM; with SF-268 CNS, 6.07 µM; with NCI-H226 lung it was 7.58 µM. Moreover, the TGI in the experiment with UACC-62 melanoma is 22.4 µM; in the experiment on T-47D breast, 30.5 µM; with MALME-3M melanoma it was 24 µM; in the experiment on CCRF-CEM leukemia, 53 µM; in the experiment on RPMI-8226 leukemia, 38.1 µM; in the experiment on LOX IMVI melanoma, 20.4 µM. The TGI in the experiment with NCI-H460 lung was 14.7 µM; with KM12 colon, 25.4 µM; in the experiment on SF-268 CNS it was 25 µM; with NCI-H226 lung, over 100 µM.
As for `COc1ccc(N=N/C(=N\NC(=O)c2cc(Br)ccc2O)c2ccc(N(CCC#N)CCC#N)cc2OC)cc1`, the GI50 in the experiment with UACC-62 melanoma was 94.2 µg/mL; with T-47D breast it was 72.5 µg/mL; in the experiment with MALME-3M melanoma, 68.2 µg/mL; in the experiment on CCRF-CEM leukemia, 57.1 µg/mL; with RPMI-8226 leukemia, 74.4 µg/mL; with LOX IMVI melanoma, 53.2 µg/mL. The GI50 was 33.5 µg/mL with NCI-H460 lung, 44.6 µg/mL with KM12 colon, 30.1 µg/mL in the experiment with SF-268 CNS and 24.2 µg/mL in the experiment on NCI-H226 lung. For the same compound, the TGI with UACC-62 melanoma, in the experiment with T-47D breast, in the experiment on MALME-3M melanoma, with CCRF-CEM leukemia, in the experiment with RPMI-8226 leukemia and with LOX IMVI melanoma was over 150 µg/mL throughout. The TGI in the experiment on NCI-H460 lung was 109 µg/mL; in the experiment with KM12 colon, 128 µg/mL; in the experiment on SF-268 CNS, over 150 µg/mL; with NCI-H226 lung, 88.1 µg/mL.
As for `CCCCOC(=O)/C=C\C(=O)NC(N)=O`, the GI50 in the experiment on UACC-62 melanoma was 15.3 µM; in the experiment with T-47D breast it was 14.5 µM; in the experiment on MALME-3M melanoma it was 14.7 µM; in the experiment with CCRF-CEM leukemia, 15.9 µM; in the experiment with RPMI-8226 leukemia it was 7.88 µM; with LOX IMVI melanoma, 17.4 µM. In addition, the GI50 is 31.9 µM in the experiment with NCI-H460 lung, 25 µM in the experiment on KM12 colon, 22.1 µM with SF-268 CNS and 20 µM in the experiment with NCI-H226 lung. Further, the TGI with UACC-62 melanoma was determined as 30.1 µM; in the experiment with T-47D breast, 95.5 µM; in the experiment on MALME-3M melanoma, 34.5 µM; in the experiment on CCRF-CEM leukemia, 35.8 µM; in the experiment on RPMI-8226 leukemia, 28.9 µM; in the experiment on LOX IMVI melanoma, 32.4 µM. The TGI is over 100 µM in the experiment with NCI-H460 lung, 66.9 µM with KM12 colon, 61 µM with SF-268 CNS and 49.2 µM in the experiment with NCI-H226 lung.
Take `CC(C)n1nc(C#Cc2cccc(O)c2)c2c(N)ncnc21`: the GI50 in the experiment with UACC-62 melanoma is 0.82 µM and 0.346 µM; in the experiment on T-47D breast, 1.01 µM and 0.864 µM; in the experiment with MALME-3M melanoma, 0.248 µM and 0.234 µM; in the experiment with CCRF-CEM leukemia, 1.65 µM and 1.15 µM; with RPMI-8226 leukemia, 1.13 µM and 0.516 µM; with LOX IMVI melanoma it was 0.685 µM and 0.316 µM. Moreover, the GI50 was 1.34 µM and 1.13 µM in the experiment on NCI-H460 lung; 1.75 µM and 2.33 µM in the experiment on KM12 colon; 1.37 µM and 1.09 µM in the experiment on SF-268 CNS; 3.81 µM and 1.37 µM in the experiment with NCI-H226 lung. Further, the TGI was 2.59 µM and 1.58 µM with UACC-62 melanoma; 3.38 µM and 4.09 µM with T-47D breast; 1.38 µM and 0.917 µM in the experiment with MALME-3M melanoma; 50 µM and 13.3 µM in the experiment on CCRF-CEM leukemia; 5.78 µM and 6.19 µM with RPMI-8226 leukemia; 2.64 µM and 1.19 µM in the experiment on LOX IMVI melanoma. In addition, the TGI with NCI-H460 lung is 9.9 µM and 13.1 µM; with KM12 colon, 25.8 µM and 60.8 µM; in the experiment with SF-268 CNS, 6.71 µM and 6.05 µM; in the experiment on NCI-H226 lung, 21.1 µM and 6.02 µM.
With `O=C(O)c1ccc(NCc2nc3ccccc3[nH]2)cc1`, the GI50 in the experiment with UACC-62 melanoma was over 100 µM; in the experiment on T-47D breast, over 100 µM; in the experiment with MALME-3M melanoma, 1.25 µM; in the experiment on CCRF-CEM leukemia, over 100 µM; in the experiment on RPMI-8226 leukemia, over 100 µM; in the experiment with LOX IMVI melanoma it was over 100 µM. Moreover, the GI50 in the experiment on NCI-H460 lung, in the experiment on KM12 colon, in the experiment with SF-268 CNS and with NCI-H226 lung was over 100 µM throughout. For the same compound, the TGI with UACC-62 melanoma is over 100 µM; in the experiment on T-47D breast, over 100 µM; with MALME-3M melanoma it was 7.52 µM; with CCRF-CEM leukemia, over 100 µM; in the experiment on RPMI-8226 leukemia, over 100 µM; in the experiment with LOX IMVI melanoma, over 100 µM. Besides, the TGI in the experiment with NCI-H460 lung, in the experiment with KM12 colon, in the experiment on SF-268 CNS and with NCI-H226 lung was over 100 µM throughout.

These data come from PubChem BioAssay (NCI).
